Experimental data: patent publication US20240115709A1, “ASSEMBLY OF ORGANIC SUPRAMOLECULAR VESSELS FOR CONTROLLED DRUG RELEASE” (NOBLE PANACEA LABS, INC., priority 2021, published 2024)
Converted amounts (≈) assume the structure as drawn. Read-outs that look alike come from different tables or passages of the source.

Legend:
[1] = Release/diffusion using Franz diffusion cell with artificial membrane; format: in vitro ADME; settings: control, OA only, within 4 hours
[2] = cited from earlier work
[3] = Solubility in water and solvents; format: physicochemical
[4] = 20° C., reported value; cited from earlier work
[5] = Thermogravimetric analysis (thermal stability); format: physicochemical; settings: 250-380° C., argon atmosphere
Procedure: The thermal stability of the γ-CD. γ-CDP and γ-CDP has been investigated (FIG. 4) using thermogravimetric analysis which was carried out in argon atmosphere. […] This weight loss may be associated to the decomposition of the ester functional groups attaching the aliphatic chains to the CD.
Thermogravimetric (TGA, Netzsch) was carried out from room temperature to 400° C. at a ramping rate of 5° C. min−1 under an Ar flow.

Structure (SMILES): CN(C)c1ccc2cc3ccc(N(C)C)cc3nc2c1.Cl [Orange Acridine hydrochloride (OA), Orange Acridine hydrochloride]
- diffusion through the membrane [1]: 92%
- solubility in water ([2]; 23° C.): 6000 µg/mL

Structure (SMILES): O=C1O[C@H]([C@@H](O)CO)C([O-])=C1OP(=O)([O-])[O-].O=C1O[C@H]([C@@H](O)CO)C([O-])=C1OP(=O)([O-])[O-].[Mg+2].[Mg+2].[Mg+2] [magnesium ascorbyl phosphate (MgAsc), magnesium ascorbyl phosphate]
- solubility in water [2]: 8100 µg/mL

Structure (SMILES): NC(=O)c1cccnc1 [niacinamide]
- solubility in EtOAc upon addition of the CDOs [3]: increases significantly
- solubility in EtOAc ([3]; alone): low solubility

Structure (SMILES): CCCCCCCC/C=C\CCCCCCCC(=O)O [oleic acid]
- viscosity [4]: 0.0348 Pa·s

Structure (SMILES): Oc1ccc(C=Cc2cc(O)cc(O)c2)cc1 [resveratrol]
- solubility in water [2]: 50 µg/mL (≈ 219 µM)

Structure (SMILES): Cc1c(C)c2c(c(C)c1O)CC[C@@](C)(CCC[C@H](C)CCC[C@H](C)CCCC(C)C)O2 [α-tocopherol]
- viscosity [4]: 4.6 Pa·s

Structure (SMILES): OC[C@H]1O[C@@H]2O[C@H]3[C@H](O)[C@@H](O)[C@@H](O[C@H]4[C@H](O)[C@@H](O)[C@@H](O[C@H]5[C@H](O)[C@@H](O)[C@@H](O[C@H]6[C@H](O)[C@@H](O)[C@@H](O[C@H]7[C@H](O)[C@@H](O)[C@@H](O[C@H]8[C@H](O)[C@@H](O)[C@@H](O[C@H]9[C@H](O)[C@@H](O)[C@@H](O[C@H]1[C@H](O)[C@H]2O)O[C@@H]9CO)O[C@@H]8CO)O[C@@H]7CO)O[C@@H]6CO)O[C@@H]5CO)O[C@@H]4CO)O[C@@H]3CO [γ-CD, γ-Cyclodextrin]
- weight loss [5]: 60%
